Results: ChEMBL document CHEMBL4706632, “Development of Potential Antitumor Agents from the Scaffolds of Plant-Derived Terpenoid Lactones” (J Med Chem, 2020)

Experiments:
CCRF-CEM = test: Cytotoxicity against human CEM cells incubated for 72 hrs by MTT assay; format: functional, cell-based
HL-60 [1] = test: Cytotoxicity against human HL-60 cells incubated for 72 hrs by MTT assay; format: functional, cell-based; settings: HL-60, 72 h
Jurkat [2] = test: Cytotoxicity against human Jurkat cells incubated for 72 hrs by MTT assay; format: functional, cell-based
SW626 = test: Cytotoxicity against human SW626 cells; format: functional, cell-based
[3] = Cytotoxicity against human Lu-1 cells; format: functional, cell-based; settings: Lu1
L1210 = test: Cytotoxicity against mouse L1210 cells; format: functional, cell-based
HCT-116 = test: Cytotoxicity against human HCT116 cells incubated for 72 hrs by ATPlite assay; format: functional, cell-based; settings: HCT-116, 72 h
HL-60 [4] = test: Cytotoxicity against human HL-60 cells incubated for 72 hrs by ATPlite assay; format: functional, cell-based; settings: HL-60, 72 h
Jurkat [5] = test: Cytotoxicity against human Jurkat cells incubated for 72 hrs by ATPlite assay; format: functional, cell-based
WM 266-4 = test: Cytotoxicity against human WM 266-4 cells incubated for 72 hrs by ATPlite assay; format: functional, cell-based; settings: WM 266-4, 72 h
LNCaP [6] = test: Cytotoxicity against human LNCaP cells; format: functional, cell-based
HeLa = test: Cytotoxicity against human HeLa cells; format: functional, cell-based
MCF7 [7] = test: Cytotoxicity against human MCF7 cells; format: functional, cell-based
NCI-H446 = test: Cytotoxicity against human NCI-H446 cells; format: functional, cell-based
BXPC-3 = test: Antiproliferative activity against human BXPC-3 incubated for 72 hrs by alamar blue assay; format: functional, cell-based; settings: BXPC-3, 72 h
ASPC1 = test: Antiproliferative activity against human ASPC1 incubated for 72 hrs by alamar blue assay; format: functional, cell-based; settings: ASPC1, 72 h
CFPAC-1 = test: Antiproliferative activity against human CFPAC-1 incubated for 72 hrs by alamar blue assay; format: functional, cell-based; settings: CFPAC-1, 72 h
SW1990 = test: Antiproliferative activity against human SW1990 incubated for 72 hrs by alamar blue assay; format: functional, cell-based; settings: SW1990, 72 h
[8] = Antitumor activity against human PaTu8988 cells xenografted in NOD/SCID mouse assessed as tumor growth inhibition at 5 mg/kg, ip administered daily for 60 days by digital caliper method relative to control; format: functional; settings: 1440 h, time 60 day, read-out: TGI
[9] = Antiproliferative activity against human PaTu8988 incubated for 72 hrs by alamar blue assay; format: functional; settings: PaTu8988, 72 h
PC-3 = test: Antiproliferative activity against human PC-3 cells incubated for 72 hrs by CCK8 assay; format: functional, cell-based; settings: PC-3, 72 h
DU-145 = test: Antiproliferative activity against human DU-145 cells incubated for 72 hrs by CCK8 assay; format: functional, cell-based; settings: DU-145, 72 h
LNCaP [10] = test: Antiproliferative activity against human LNCaP cells incubated for 72 hrs by CCK8 assay; format: functional, cell-based
RKO = test: Cytotoxicity against human RKO cells incubated for 72 hrs by Cell Titer-Glo luminescence assay; format: functional, cell-based
SW480 [11] = test: Cytotoxicity against human SW480 cells incubated for 72 hrs by Cell Titer-Glo luminescence assay; format: functional, cell-based; settings: SW480, 72 h
AGS = test: Cytotoxicity against human AGS cells incubated for 72 hrs by Alamar Blue method; format: functional, cell-based
HGC-27 = test: Cytotoxicity against human HGC-27 cells incubated for 72 hrs by Alamar Blue method; format: functional, cell-based; settings: HGC-27, 72 h
MGC-803 = test: Cytotoxicity against human MGC-803 cells incubated for 72 hrs by Alamar Blue method; format: functional, cell-based; settings: MGC-803, 72 h
NCI-N87 = test: Cytotoxicity against human NCI-N87 cells incubated for 72 hrs by Alamar Blue method; format: functional, cell-based; settings: NCI-N87, 72 h
SGC-7901 = test: Cytotoxicity against human SGC-7901 cells incubated for 72 hrs by Alamar Blue method; format: functional, cell-based; settings: SGC-7901, 72 h
PANC-1 = test: Cytotoxicity against human Panc-1 cells incubated for 72 hrs by alamar blue assay; format: functional, cell-based; settings: PANC-1, 72 h
Raji = test: Antiproliferative activity against human Raji cells incubated for 3 to 6 days by alamar blue assay; format: functional, cell-based
Jurkat [12] = test: Antiproliferative activity against human Jurkat cells incubated for 3 to 6 days by alamar blue assay; format: functional, cell-based
HT-29 = test: Cytotoxicity against human HT-29 cells incubated for 72 hrs by sulforhodamine B assay; format: functional, cell-based; settings: HT-29, 72 h
MCF7 [13] = test: Antiproliferative activity against human MCF7 cells incubated for 48 hrs by [3H]-thymidine incorporation assay; format: functional, cell-based
MDA-MB-435 = test: Antiproliferative activity against human MDA-MB-435 cells incubated for 48 hrs by [3H]-thymidine incorporation assay; format: functional, cell-based
SW480 [14] = test: Antiproliferative activity against human SW480 cells incubated for 72 hrs by MTT assay; format: functional, cell-based; settings: SW480, 72 h
MCF7 [15] = test: Antiproliferative activity against human MCF7 cells by tetrazolium-based semiautomated colorimetric assay; format: functional, cell-based

**Q.** Which results are given for CC(=O)O[C@@]1(C)COC2(C1)OC(=O)[C@H]([C@@H]1CC[C@]34C[C@]13C=C[C@@H]1[C@@]3(C)CC=C5C[C@@H](Cc6ccccc6)OC[C@]5(C)[C@@H]3C[C@@H](O)[C@]14C)[C@H]2O (some centres not stated)?
**A.** IC50 (CCRF-CEM): 24000 nM; IC50 (HL-60 [1]): 30000 nM; IC50 (Jurkat [2]): 2700 nM

**Q.** For C/C(=C\[C@H]1C[C@@H]([C@@H]2CC[C@]34C[C@]23C=C[C@@H]2[C@@]3(C)CC=C5C[C@@H](c6ccccc6)OC[C@]5(C)[C@@H]3C[C@@H](O)[C@]24C)C(=O)O1)CO [DICHAPETALIN A], which IC50 (SW626) is on record?
**A.** 340 nM

**Q.** What about the IC50 [3] of the same compound?
**A.** 7000 nM

**Q.** And the EC90 (L1210)?
**A.** < 0.17 nM

**Q.** And the EC50 (HCT-116)?
**A.** 250 nM

**Q.** And the IC50 (HL-60 [4])?
**A.** 11000 nM

**Q.** What about the IC50 (Jurkat [5]) of the same compound?
**A.** 3000 nM

**Q.** And the EC50 (WM 266-4)?
**A.** 17000 nM

**Q.** And the IC50 (CCRF-CEM)?
**A.** 9600 nM

**Q.** What about the IC50 (LNCaP [6]) of the same compound?
**A.** 12000 nM

**Q.** For C[C@@]12[C@H](O)C=C[C@]3(C)C(=O)O[C@H](C=C4COC(=O)C[C@H]41)[C@H]23, which IC50 (HeLa) is on record?
**A.** 10000 nM

**Q.** What about the IC50 (MCF7 [7]) of the same compound?
**A.** 11000 nM

**Q.** And the IC50 (NCI-H446)?
**A.** 16000 nM

**Q.** Which results are given for CC(C)[C@]12O[C@H]1[C@@H]1O[C@@]13[C@@]1(C)CCC4=C(COC4=O)[C@@H]1C[C@@H]1O[C@@]13C2=O [TRIPTONIDE]?
**A.** IC50 (BXPC-3): < 20 nM; IC50 (ASPC1): < 20 nM; IC50 (CFPAC-1): < 20 nM; IC50 (SW1990): < 20 nM; inhibition in vivo at 5 mg/kg [8]: 97.5%; IC50 [9]: < 20 nM; IC50 (PC-3): 12 nM; IC50 (DU-145): 10 nM; IC50 (LNCaP [10]): 10 nM; IC50 (RKO): 15 nM; IC50 (SW480 [11]): 17 nM; IC50 (AGS): < 20 nM; IC50 (HGC-27): < 20 nM; IC50 (MGC-803): < 20 nM; IC50 (NCI-N87): < 20 nM; IC50 (SGC-7901): < 20 nM; IC50 (PANC-1): < 20 nM; IC50 (Raji): 4 nM; IC50 (Jurkat [12]): 4 nM

**Q.** For COC/C(C)=C/[C@@H]1OC(=O)[C@H]([C@@H]2CC[C@]34C[C@]23C=C[C@@H]2[C@@]3(C)CC=C5C[C@@H](c6ccc7c(c6)OCO7)OC[C@]5(C)[C@@H]3C[C@@H](O)[C@]24C)[C@H]1O, which IC50 (HT-29) is on record?
**A.** > 10000 nM

**Q.** With CC1(C)OC(=O)C=C[C@]2(C)[C@H]3CC[C@@](C)([C@@H](O[C@H]4O[C@H](CO)[C@@H](O)[C@H](O)[C@H]4O)c4ccoc4)[C@@]4(O[C@@H]4C(=O)O)[C@]3(C)C(=O)C[C@@H]12 as the compound, how does the IC50 (MCF7 [13]) read?
**A.** 3200 nM

**Q.** What about the IC50 (MDA-MB-435) of the same compound?
**A.** 10000 nM

**Q.** What about the IC50 (SW480 [14]) of the same compound?
**A.** 60000 nM

**Q.** For C[C@H]1[C@@H](CCC(=O)NCC[C@H]2O[C@@H]3O[C@]4(C)CC[C@H]5[C@H](C)CC[C@@H]([C@H]2C)[C@@]35OO4)O[C@@H]2O[C@@]3(C)CC[C@H]4[C@H](C)CC[C@@H]1[C@@]24OO3, which IC50 (MCF7 [15]) is on record?
**A.** 8 nM

**Q.** For CC1(C)OC(=O)C=C[C@]2(C)[C@H]3CC[C@@]4(C)[C@H](c5ccoc5)OC(=O)[C@H]5O[C@]54[C@]3(C)C(=O)C[C@@H]12 [OBACUNONE], which IC50 (MCF7 [13]) is on record?
**A.** 20 nM

**Q.** And the IC50 (MDA-MB-435)?
**A.** 6800 nM

**Q.** What about the IC50 (SW480 [14]) of the same compound?
**A.** 56000 nM
